One series concerns the target T1, human Y2 receptor (Homo sapiens, UniProt P49146).
T1 construct: expressed in transfected cells; host or cells: CHO-K1 (membrane preparation)
T1 sequence (P49146 1-381): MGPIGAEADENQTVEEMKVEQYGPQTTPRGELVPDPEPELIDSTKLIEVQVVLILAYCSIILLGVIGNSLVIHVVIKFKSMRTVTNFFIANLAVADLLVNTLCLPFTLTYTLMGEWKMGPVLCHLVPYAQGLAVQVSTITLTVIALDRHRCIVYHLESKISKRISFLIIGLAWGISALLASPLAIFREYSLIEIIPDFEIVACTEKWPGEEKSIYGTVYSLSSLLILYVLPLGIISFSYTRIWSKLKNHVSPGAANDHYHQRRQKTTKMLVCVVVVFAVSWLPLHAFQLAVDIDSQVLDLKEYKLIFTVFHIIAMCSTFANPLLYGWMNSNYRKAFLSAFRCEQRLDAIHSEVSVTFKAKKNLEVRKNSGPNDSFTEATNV
Put plainly: Scintillation proximity assay (SPA) receptor binding, Y2. As for the experimental part:
(§1) The purpose of this example is to test the in vitro binding of the PYY compounds to the Y1, Y2, Y4 and Y5 receptor subtypes, respectively. The receptor binding affinity is a measure of affinity of a compound for the human Y1, Y2, Y4 and Y5 receptor subtypes, respectively.
(§2) Scintillation Proximity Assay (SPA)
(§3) NPY-Receptor Expressing Cell Lines.
All cells were cultured at +37° C. in a humidified atmosphere with 5% CO2. […] CHO-K1 cells stably expressing the human Y2 receptor (P49146, NPY2R_HUMAN, Uniprot) were cultured in DMEM F-12 with 10% FBS, 1% P/S, 150 μg/ml Hygromycin B and 10 μg/ml Puromycin antibiotic. CHO-K1 cells stably expressing the human Y4 receptor (P50391, NPY4R_HUMAN, Uniprot) were cultured in DMEM F-12 with 10% FBS, 1% P/S, 10 μg/ml Puromycin. HEK-293 cells stably expressing the human Y5 receptor (Q15761, NPY5R_HUMAN, Uniprot) were cultured in DMEM F-12 medium containing 10% FBS, 1% Penicillin-Streptomycin, 250 μg/ml G418 and 1 μg/ml puromycin. […]
(§4) Plates were sealed and incubated at +25° C. for 2 hours in a plate shaker set at 400 rpm and thereafter centrifuged at 1500 rpm for 10 minutes prior to reading of luminescence on a microplate scintillation and luminescence counter. […] Displacement of radioligand was measured as reduction in luminescence and IC50 values were calculated by nonlinear regression analysis of sigmoidal dose-response curves.
A general note: Scintillation proximity formats need no separation of bound from free tracer.

The target in a further series is T2, human Y1 receptor (Homo sapiens, UniProt P25929).
T2 construct: expressed in transfected cells; host or cells: BHK-21 clone 6-482-8, IPTG-induced (membrane preparation)
T2 sequence (P25929 1-384): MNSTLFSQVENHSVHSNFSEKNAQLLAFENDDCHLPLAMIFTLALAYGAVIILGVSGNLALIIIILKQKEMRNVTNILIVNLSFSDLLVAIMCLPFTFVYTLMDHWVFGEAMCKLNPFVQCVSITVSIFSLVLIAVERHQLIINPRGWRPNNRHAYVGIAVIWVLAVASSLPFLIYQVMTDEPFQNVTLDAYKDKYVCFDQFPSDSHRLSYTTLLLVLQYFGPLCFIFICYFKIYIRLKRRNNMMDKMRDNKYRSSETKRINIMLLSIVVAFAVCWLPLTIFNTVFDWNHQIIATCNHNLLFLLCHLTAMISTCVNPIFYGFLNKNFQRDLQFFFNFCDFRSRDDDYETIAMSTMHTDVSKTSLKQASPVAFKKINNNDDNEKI
Put plainly: Scintillation proximity assay (SPA) receptor binding, Y1. On the procedure: as §1, §2, §3
(§5) All cells were cultured at +37° C. in a humidified atmosphere with 5% CO2. […] CHO-K1 cells stably expressing the human Y2 receptor (P49146, NPY2R_HUMAN, Uniprot) were cultured in DMEM F-12 with 10% FBS, 1% P/S, 150 μg/ml Hygromycin B and 10 μg/ml Puromycin antibiotic. CHO-K1 cells stably expressing the human Y4 receptor (P50391, NPY4R_HUMAN, Uniprot) were cultured in DMEM F-12 with 10% FBS, 1% P/S, 10 μg/ml Puromycin. HEK-293 cells stably expressing the human Y5 receptor (Q15761, NPY5R_HUMAN, Uniprot) were cultured in DMEM F-12 medium containing 10% FBS, 1% Penicillin-Streptomycin, 250 μg/ml G418 and 1 μg/ml puromycin.
(§6) The homogenate was centrifuged at 35000 g using an ultracentrifuge for 10 minutes at +4° C. and the supernatant was discarded and fresh homogenization buffer added. Homogenization of the pellet was repeated a total of three times.
(§7) Human Y receptor SPA binding assay were performed in white 96-well plates in a total volume of 200 μl per well.
as §4

In another series the target is T3, human Y4 receptor (Homo sapiens, UniProt P50391).
T3 construct: expressed in transfected cells; host or cells: CHO-K1 (membrane preparation)
Put plainly: Scintillation proximity assay (SPA) receptor binding, Y4. The settings on record: Y4 Ki, membranes of CHO-K1 cells, [125I]-Pancreatic Polypeptide. As for the experimental part:
as §1, §2, §3, §5, §6, §7, §4

A short description of series [1]: Pharmacokinetic study in minipigs after i.v. administration. The settings on record: female, Göttingen, minipig, plasma, iv, 15 nmol/kg; read-out: Half-life (t½) (converted). In kind it is in vivo. The text has this:
By terminal half-life is generally meant the period of time it takes to halve a certain plasma concentration, measured after the initial distribution phase.
After minimum 2 weeks of acclimatization two permanent central venous catheters were implemented in vena cava caudalis in each animal. After surgery the animals were in their normal individual pens during the pharmacokinetic experiments.
On day 1 the catheters are coupled to extension tubes, which will be removed at the end of day 1. […] Samples were kept on wet ice until centrifugation (10 min, 4° C., 1942 g).
Plasma concentration-time profiles was analysed by a non-compartmental pharmacokinetics analysis using Phoenix (Pharsight Inc., Mountain View, Calif., USA). Calculations were performed using individual concentration-time values from each animal.

T3 sequence (P50391 whole entry): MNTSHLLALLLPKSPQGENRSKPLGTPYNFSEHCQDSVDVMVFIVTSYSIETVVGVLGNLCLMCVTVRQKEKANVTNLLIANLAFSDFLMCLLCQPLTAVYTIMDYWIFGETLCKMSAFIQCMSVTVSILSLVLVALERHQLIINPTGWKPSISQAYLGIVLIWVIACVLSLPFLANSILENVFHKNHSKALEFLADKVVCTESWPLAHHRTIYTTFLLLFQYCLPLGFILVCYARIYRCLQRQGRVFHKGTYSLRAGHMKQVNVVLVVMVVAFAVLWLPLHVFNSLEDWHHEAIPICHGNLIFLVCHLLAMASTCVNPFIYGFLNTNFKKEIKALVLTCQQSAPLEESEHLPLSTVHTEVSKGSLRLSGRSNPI

Regarding `CC(C)CC(=O)N[C@@H](CCCNC(=N)N)C(=O)N1CCC[C@H]1C(=O)N[C@@H](CCC(=O)O)C(=O)N[C@@H](CCCCNC(=O)CC[C@H](NC(=O)CCCCCCCCCCCCCCCCC(=O)O)C(=O)O)C(=O)N1CCC[C@H]1C(=O)N[C@H](C(=O)N[C@@H](CCC(=O)O)C(=O)N[C@@H](CC(=O)O)C(=O)N[C@@H](C)C(=O)N[C@@H](CO)C(=O)N1CCC[C@H]1C(=O)N[C@@H](CCC(=O)O)C(=O)N[C@@H](CCC(=O)O)C(=O)N[C@@H](CC(C)C)C(=O)N[C@@H](CCC(N)=O)C(=O)N[C@@H](CCCNC(=N)N)C(=O)N[C@@H](Cc1ccc(O)cc1)C(=O)N[C@@H](Cc1ccc(O)cc1)C(=O)N[C@H](C(=O)N[C@@H](CO)C(=O)N[C@@H](CC(C)C)C(=O)N[C@@H](CCCNC(=N)N)C(=O)N[C@@H](Cc1c[nH]cn1)C(=O)N[C@@H](Cc1ccc(O)cc1)C(=O)N[C@@H](Cc1ccc(O)cc1)C(=O)N[C@@H](CC(N)=O)C(=O)N[C@@H](Cc1c[nH]c2ccccc12)C(=O)N[C@@H](CC(C)C)C(=O)N[C@H](C(=O)N[C@@H](CCCNC(=N)N)C(=O)N[C@@H](CCC(N)=O)C(=O)N[C@@H](CCCNC(=N)N)C(=O)N[C@@H](Cc1ccc(O)cc1)C(N)=O)[C@@H](C)O)C(C)C)[C@@H](C)O` [Compound 44, N{alpha-4}-(3-Methylbutanoyl)-N{Epsilon-7}-[(4S)-4-carboxy-4-(17-carboxy-heptadecanoylamino)butanoyl]-[Arg4,Lys7,Thr9,Gln18,Val22,Tyr28,Trp30,Leu31]hPYY(4-36)], the inhibition constant (Ki) – broadly, a measure of affinity in units of concentration, obtained from inhibition or displacement – at human Y2 receptor is 0.00033 µM; at human Y1 receptor, above 10 µM.

For `CC(C)CC(=O)N[C@@H](CCCNC(=N)N)C(=O)N1CCC[C@H]1C(=O)N[C@@H](CCC(=O)O)C(=O)N[C@@H](C)C(=O)N1CCC[C@H]1C(=O)NCC(=O)N[C@@H](CCCCNC(=O)CC[C@H](NC(=O)COCCOCCNC(=O)CC[C@H](NC(=O)CCCCCCCCCCCCCCCCC(=O)O)C(=O)O)C(=O)O)C(=O)N[C@@H](CC(=O)O)C(=O)N[C@@H](C)C(=O)N[C@@H](CO)C(=O)N1CCC[C@H]1C(=O)N[C@@H](CCC(=O)O)C(=O)N[C@@H](CCC(=O)O)C(=O)N[C@@H](CC(C)C)C(=O)N[C@@H](CCC(N)=O)C(=O)N[C@@H](CCCNC(=N)N)C(=O)N[C@@H](Cc1ccc(O)cc1)C(=O)N[C@@H](Cc1ccc(O)cc1)C(=O)N[C@@H](CCC(=O)O)C(=O)N[C@@H](CO)C(=O)N[C@@H](CC(C)C)C(=O)N[C@@H](CCCNC(=N)N)C(=O)N[C@@H](Cc1c[nH]cn1)C(=O)N[C@@H](Cc1ccc(O)cc1)C(=O)N[C@@H](Cc1ccc(O)cc1)C(=O)N[C@@H](CC(N)=O)C(=O)N[C@@H](Cc1c[nH]c2ccccc12)C(=O)N[C@@H](CC(C)C)C(=O)N[C@H](C(=O)N[C@@H](CCCNC(=N)N)C(=O)N[C@@H](CCC(N)=O)C(=O)N[C@@H](CCCNC(=N)N)C(=O)N[C@@H](Cc1ccc(O)cc1)C(N)=O)[C@@H](C)O` [Compound 50, N{alpha-4}-(3-Methylbutanoyl)-N{Epsilon-10}-[(4S)-4-carboxy-4-[[2-[2-[2-[[(4S)-4-carboxy-4-(17-carboxyheptadecanoylamino)butanoyl]amino]ethoxy]ethoxy]-acetyl]amino]butanoyl]-[Arg4,Lys10,Gln18,Glu22,Tyr28,Trp30,Leu31]-PYY(4-36)], the inhibition constant Ki on human Y1 receptor and on human Y4 receptor was above 10 µM throughout. In addition, the half-life (as a rule, the time needed for the level to fall by half in the phase considered) in series [1] is 94 h.

For `CC(C)CC(=O)N[C@@H](CCCNC(=N)N)C(=O)N1CCC[C@H]1C(=O)N[C@@H](CCC(=O)O)C(=O)N[C@@H](C)C(=O)N1CCC[C@H]1C(=O)N1CCC[C@H]1C(=O)N[C@@H](CCCCNC(=O)CC[C@H](NC(=O)COCCOCCNC(=O)CC[C@H](NC(=O)CCCCCCCCCCCCCCCS(=O)(=O)O)C(=O)O)C(=O)O)C(=O)N[C@@H](CC(=O)O)C(=O)N[C@@H](C)C(=O)N[C@@H](CO)C(=O)N1CCC[C@H]1C(=O)N[C@@H](CCC(=O)O)C(=O)N[C@@H](CCC(=O)O)C(=O)N[C@@H](CC(C)C)C(=O)N[C@@H](CCC(N)=O)C(=O)N[C@@H](CCCNC(=N)N)C(=O)N[C@@H](Cc1ccc(O)cc1)C(=O)N[C@@H](Cc1ccc(O)cc1)C(=O)N[C@@H](C)C(=O)N[C@@H](CO)C(=O)N[C@@H](CC(C)C)C(=O)N[C@@H](CCCNC(=N)N)C(=O)N[C@@H](Cc1c[nH]cn1)C(=O)N[C@@H](Cc1ccc(O)cc1)C(=O)N[C@@H](Cc1ccc(O)cc1)C(=O)N[C@@H](CC(N)=O)C(=O)N[C@@H](Cc1c[nH]c2ccccc12)C(=O)N[C@@H](CC(C)C)C(=O)N[C@H](C(=O)N[C@@H](CCCNC(=N)N)C(=O)N[C@@H](CCC(N)=O)C(=O)N[C@@H](CCCNC(=N)N)C(=O)N[C@@H](Cc1ccc(O)cc1)C(N)=O)[C@@H](C)O` [Compound 69, N{alpha-4}-(3-Methylbutanoyl)-N{Epsilon-10}-[(4S)-4-carboxy-4-[[2-[2-[2-[[(4S)-4-carboxy-4-(16-sulfohexadecanoylamino)butanoyl]amino]ethoxy]-ethoxy]acetyl]amino]butanoyl]-[Arg4,Pro9,Lys10,Gln18,Tyr28,Trp30,Leu31]-PYY-(4-36)], the Ki was above 10 µM at human Y1 receptor and 5.69 µM at human Y4 receptor. Also, the half-life in series [1] was 64 h.

The record behind these values is patent US10005824B2, “Selective PYY compounds and uses thereof” (Novo Nordisk A/S, priority 2015, dated 2018).
